Columns and labels:
Test in all cases: In vitro competitive activity-based protein profiling (gel-based, FP-Rh or HT-01 probe)
Type in all cases: biochemical
MAGL = molecular target: T1, MAGL (Mus musculus, UniProt O35678); details: for inhibition at 1 µM: 1 μM inhibitor; for inhibition at 1 µM / inhibition at 10 µM: gel-based competitive ABPP; for IC50: mouse brain membrane fraction or cell lysates, 30 min preincubation at 37° C., read-out: Mouse (IC50 value, nM) MAGL; for inhibition at 10 µM: 10 μM inhibitor
T1 construct: Proteomes (mouse brain membrane fraction or cell lysates); from tissue; host or cells: mouse brain membrane fraction (or cell lysates, not specified)
T1 sequence (O35678 1-303): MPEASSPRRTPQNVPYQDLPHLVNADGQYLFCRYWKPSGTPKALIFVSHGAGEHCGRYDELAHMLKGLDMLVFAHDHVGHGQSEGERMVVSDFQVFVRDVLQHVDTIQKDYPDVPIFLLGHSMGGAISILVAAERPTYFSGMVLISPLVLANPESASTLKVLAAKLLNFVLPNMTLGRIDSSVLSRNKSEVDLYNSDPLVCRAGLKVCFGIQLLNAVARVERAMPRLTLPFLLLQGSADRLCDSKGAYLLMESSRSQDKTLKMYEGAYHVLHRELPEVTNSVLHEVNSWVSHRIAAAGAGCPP
Method in brief: (§1)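 Mouse brain membrane or cell lysate proteomes (1.0 mg/mL) preincubated with inhibitors 30 min at 37° C, then labelled with FP-Rh or HT-01 for 30 min at 37° C. After SDS-PAGE, activity quantified from fluorescent band intensity.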

PLA2G7 = molecular target: T2, PLA2G7 (Mus musculus, UniProt Q60963); details: for inhibition at 1 µM: 1 μM inhibitor, read-out: % Inhibition at 1 μM, D = PLA2G7; for inhibition at 1 µM / inhibition at 10 µM: gel-based competitive ABPP; for IC50: mouse brain membrane fraction or cell lysates, 30 min preincubation at 37° C.; for inhibition at 10 µM: 10 μM inhibitor, read-out: % Inhibition at 10 μM, D = PLA2G7
T2 construct: Proteomes (mouse brain membrane fraction or cell lysates); from tissue; host or cells: mouse brain membrane fraction (or cell lysates, not specified)
T2 sequence (Q60963 22-440): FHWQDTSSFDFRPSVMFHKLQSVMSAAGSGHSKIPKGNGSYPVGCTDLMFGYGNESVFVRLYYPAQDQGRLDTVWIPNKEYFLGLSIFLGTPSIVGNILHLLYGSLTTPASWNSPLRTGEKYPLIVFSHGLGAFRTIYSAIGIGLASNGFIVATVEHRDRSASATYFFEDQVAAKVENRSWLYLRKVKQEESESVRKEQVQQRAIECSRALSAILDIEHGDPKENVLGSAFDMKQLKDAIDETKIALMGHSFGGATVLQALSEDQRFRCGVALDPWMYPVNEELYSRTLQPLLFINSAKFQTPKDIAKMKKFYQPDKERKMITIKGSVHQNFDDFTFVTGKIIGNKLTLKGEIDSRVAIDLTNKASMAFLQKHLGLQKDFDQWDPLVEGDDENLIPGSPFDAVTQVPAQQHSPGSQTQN
Method in brief: as §1

FAAH = molecular target: T3, FAAH (Mus musculus, UniProt O08914); details: for inhibition at 1 µM: 1 μM inhibitor, read-out: % Inhibition at 1 μM, B = FAAH; for inhibition at 1 µM / inhibition at 10 µM: gel-based competitive ABPP; for IC50: mouse brain membrane fraction or cell lysates, 30 min preincubation at 37° C., read-out: Mouse (IC50 value, nM) FAAH; for inhibition at 10 µM: 10 μM inhibitor, read-out: % Inhibition at 10 μM, B = FAAH
T3 construct: Proteomes (mouse brain membrane fraction or cell lysates); from tissue; host or cells: mouse brain membrane fraction (or cell lysates, not specified)
T3 sequence (O08914 1-579): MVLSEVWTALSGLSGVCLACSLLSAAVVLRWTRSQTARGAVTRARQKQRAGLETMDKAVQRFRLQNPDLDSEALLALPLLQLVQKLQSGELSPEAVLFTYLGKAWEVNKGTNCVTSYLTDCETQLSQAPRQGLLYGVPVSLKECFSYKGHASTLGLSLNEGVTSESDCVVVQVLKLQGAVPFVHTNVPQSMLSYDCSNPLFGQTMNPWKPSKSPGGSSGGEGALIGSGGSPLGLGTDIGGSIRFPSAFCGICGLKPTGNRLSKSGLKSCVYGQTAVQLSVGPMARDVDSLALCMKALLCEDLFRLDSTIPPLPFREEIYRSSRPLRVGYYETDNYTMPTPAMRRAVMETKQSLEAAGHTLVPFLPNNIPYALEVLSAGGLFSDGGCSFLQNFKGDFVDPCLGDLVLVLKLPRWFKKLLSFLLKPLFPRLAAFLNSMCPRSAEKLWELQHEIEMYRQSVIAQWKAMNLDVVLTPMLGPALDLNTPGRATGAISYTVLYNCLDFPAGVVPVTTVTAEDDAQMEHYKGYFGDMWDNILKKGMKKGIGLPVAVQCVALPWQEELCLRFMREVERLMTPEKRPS
Method in brief: as §1

ABHD6 = molecular target: T4, ABHD6 (Mus musculus, UniProt Q8R2Y0); details: for inhibition at 1 µM: 1 μM inhibitor, read-out: % Inhibition at 1 μM, C = ABHD6; for inhibition at 1 µM / inhibition at 10 µM: gel-based competitive ABPP; for IC50: mouse brain membrane fraction or cell lysates, 30 min preincubation at 37° C., read-out: Mouse (IC50 value, nM) ABHD6; for inhibition at 10 µM: 10 μM inhibitor, read-out: % Inhibition at 10 μM, C = ABHD6
T4 construct: Proteomes (mouse brain membrane fraction or cell lysates); from tissue; host or cells: mouse brain membrane fraction (or cell lysates, not specified)
T4 sequence (Q8R2Y0 1-336): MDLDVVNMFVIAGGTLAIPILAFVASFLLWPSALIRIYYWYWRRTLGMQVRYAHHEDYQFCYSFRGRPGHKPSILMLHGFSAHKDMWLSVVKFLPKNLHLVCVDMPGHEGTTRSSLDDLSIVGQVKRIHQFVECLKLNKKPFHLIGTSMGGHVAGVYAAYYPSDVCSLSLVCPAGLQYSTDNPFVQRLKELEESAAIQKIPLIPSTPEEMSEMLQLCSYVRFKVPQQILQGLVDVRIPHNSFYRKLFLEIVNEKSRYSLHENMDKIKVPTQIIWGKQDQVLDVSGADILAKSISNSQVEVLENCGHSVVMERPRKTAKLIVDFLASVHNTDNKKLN
Method in brief: as §1

Row | inhibition at 1 µM (MAGL) | IC50 (MAGL) | inhibition at 1 µM (PLA2G7) | IC50 (PLA2G7) | inhibition at 1 µM (FAAH) | IC50 (FAAH) | inhibition at 1 µM (ABHD6) | IC50 (ABHD6) | inhibition at 10 µM (MAGL) | inhibition at 10 µM (PLA2G7) | inhibition at 10 µM (FAAH) | inhibition at 10 µM (ABHD6) | SMILES
1 | > 75% | < 100 nM | > 75% | < 100 nM | > 75% | < 100 nM | > 75% | < 100 nM |  |  |  |  | O=C(N1CCN(Cc2ccccc2F)CC1)n1cc(C(F)(F)F)cn1 [Example 276, (4-(2-Fluorobenzyl)piperazin-1-yl)(4-(trifluoromethyl)-1H-pyrazol-1-yl)methanone]
2 | > 75% |  | > 75% |  | > 75% |  | > 75% |  |  |  |  |  | Cc1ccccc1CN1CCN(C(=O)n2cc(C(F)(F)F)cn2)CC1 [Example 277, (4-(2-Methylbenzyl)piperazin-1-yl)(4-(trifluoromethyl)-1H-pyrazol-1-yl)methanone]
3 | > 75% |  | > 75% |  | > 75% |  | > 75% |  |  |  |  |  | COc1ccccc1CN1CCN(C(=O)n2cc(C(F)(F)F)cn2)CC1 [Example 278, (4-(2-Methoxybenzyl)piperazin-1-yl)(4-(trifluoromethyl)-1H-pyrazol-1-yl)methanone]
4 | > 75% | < 100 nM | > 75% | 100 to 1000 nM | > 75% | < 100 nM | > 75% | < 100 nM |  |  |  |  | O=C(N1CCN(Cc2ccccc2C(F)(F)F)CC1)n1cc(C(F)(F)F)cn1 [Example 279, (4-(Trifluoromethyl)-1H-pyrazol-1-yl)(4-(2-(trifluoromethyl)benzyl)piperazin-1-yl)methanone]
5 | > 75% | < 100 nM | > 75% | < 100 nM | > 75% | 100 to 1000 nM | > 75% | 100 to 1000 nM |  |  |  |  | O=C(N1CCN(Cc2ccccc2N2CCCC2)CC1)n1cc(C(F)(F)F)cn1 [Example 280, (4-(2-(Pyrrolidin-1-yl)benzyl)piperazin-1-yl)(4-(trifluoromethyl)-1H-pyrazol-1-yl)methanone]
6 | > 75% |  | > 75% |  | > 75% |  | > 75% |  |  |  |  |  | O=C(N1CCN(Cc2ccccc2N2CCOCC2)CC1)n1cc(C(F)(F)F)cn1 [Example 281, (4-(2-Morpholinobenzyl)piperazin-1-yl)(4-(trifluoromethyl)-1H-pyrazol-1-yl)methanone]
7 | > 75% |  | > 75% |  | > 75% |  | > 75% |  | > 75% | > 75% | > 75% | > 75% | N#Cc1cnn(C(=O)N2CCN(Cc3ccc(C(=O)N4CCCCC4)cc3Cl)CC2)c1 [Example 282, 1-(4-(2-Chloro-4-(piperidine-1-carbonyl)benzyl)piperazine-1-carbonyl)-1H-pyrazole-4-carbonitrile]
8 | > 75% |  | > 75% |  | > 75% |  | > 75% |  | > 75% | > 75% | > 75% | > 75% | N#Cc1cnn(C(=O)N2CCN(Cc3ccc(C(=O)N4CCC4)cc3Cl)CC2)c1 [Example 283, 1-(4-(4-(Azetidine-1-carbonyl)-2-chlorobenzyl)piperazine-1-carbonyl)-1H-pyrazole-4-carbonitrile]
9 | > 75% |  | > 75% |  | > 75% |  | > 75% |  | > 75% | > 75% | > 75% | > 75% | N#Cc1cnn(C(=O)N2CCN(Cc3ccc(C(=O)N4CCCCC4)cc3F)CC2)c1 [Example 284, 1-(4-(2-Fluoro-4-(piperidine-1-carbonyl)benzyl)piperazine-1-carbonyl)-1H-pyrazole-4-carbonitrile]
10 | > 75% |  | > 75% |  | > 75% |  | > 75% |  | > 75% | > 75% | > 75% | > 75% | N#Cc1cnn(C(=O)N2CCN(Cc3ccc(C(=O)N4CCC4)cc3F)CC2)c1 [Example 285, 1-(4-(4-(Azetidine-1-carbonyl)-2-fluorobenzyl)piperazine-1-carbonyl)-1H-pyrazole-4-carbonitrile]
11 | > 75% | < 100 nM | 25 to 75% | 100 to 1000 nM | > 75% | < 100 nM | > 75% | < 100 nM |  |  |  |  | NC(=O)c1cnn(C(=O)N2CCN(Cc3cccc(Oc4ccccc4)c3)CC2)c1 [Example 286, 1-(4-(3-phenoxybenzyl)piperazine-1-carbonyl)-1H-pyrazole-4-carboxamide]
12 | > 75% | < 100 nM | > 75% | < 100 nM | > 75% | < 100 nM | > 75% | < 100 nM |  |  |  |  | CNC(=O)c1cnn(C(=O)N2CCN(Cc3cccc(Oc4ccccc4)c3)CC2)c1 [Example 287, N-Methyl-1-(4-(3-phenoxybenzyl)piperazine-1-carbonyl)-1H-pyrazole-4-carboxamide]
13 | < 25% |  | < 25% |  | 25 to 75% |  | < 25% |  | < 25% | < 25% | > 75% | < 25% | O=C(O)c1cnn(C(=O)N2CCN(Cc3ccc(Cl)cc3)CC2)c1 [Example 288, 1-(4-(4-Chlorobenzyl)piperazine-1-carbonyl)-1H-pyrazole-4-carboxylic acid]
14 | > 75% |  | > 75% |  | > 75% |  | > 75% |  | > 75% | > 75% | > 75% | > 75% | O=C(c1cnn(C(=O)N2CCN(Cc3ccc(-c4ccccc4)cc3Cl)CC2)c1)N1CCCC1 [Example 289, (4-((3-Chlorobiphenyl-4-yl)methyl)piperazin-1-yl)(4-(pyrrolidine-1-carbonyl)-1H-pyrazol-1-yl)methanone]

— patent US10093630B2, “Pyrazole compounds and methods of making and using same” (ABIDE THERAPEUTICS, INC., priority 2014, dated 2018)
